According to patent US11352320B2 (Merck Sharp & Dohme Corp., priority 2018, dated 2022):
Counter-ions that a name gives are not always drawn.

Key:
[1] = biological target: T1, IDO1 (Homo sapiens, UniProt P14902); assay: IDO1 Cellular Assay in Hela Cells Stimulated with IFNγ; type: cell-based; set-up: endogenous in cells; host or cells: HeLa cells stimulated with IFNγ; details: IFNγ 100 ng/mL, 300 uM L-tryptophan, about 48 hours, fluorescence readout, read-out: IDO1 HELA Cell Assay, IC50
Description: Biological Assays IDO1 Cellular Assay in Hela Cells Stimulated with IFNγ
Hela cells were cultured in complete Hela culture medium (90% EMEM, 10% heat-inactivated fetal bovine serum) and expanded to about 1×10^9 cells. The cells were then collected and frozen down at 1×10^7 cells/vial in 1 mL frozen medium (90% complete Hela culture medium, 10% DMSO)
Compounds to be tested were serially diluted in ten 3-fold steps in DMSO starting from 10 mM DMSO stocks in Echo low volume plate(s). Compound dilutions or DMSO alone were then dispensed from the dilution plate(s) into Greiner black 384-well assay plate(s) (catalog #781086, 50 nL/well) using an Echo 550 acoustic liquid handler (Labcyte).
Frozen Hela cells were thawed and transferred into Hela assay medium (99% complete Hela culture medium, 1% Pen/Strep) with 20 mL medium/vial of cells. The cells were spun down at 250 g in a table top centrifuge for 5 min and suspended in same volume of Hela assay medium. The cells were then counted and adjusted to a density of 2×10^5 cells/ml in Hela assay medium. Sterile L-tryptophan were added to the cells with final concentration of 300 uM L-tryptophan. A small aliquot (2 mL/plate) of Hela cells were set aside and were not treated with IFNγ, to serve as the Max-E control. The rest of Hela cells were added with sterile IFNγ (Cat #285-IF, R & D systems) with a final concentration of 100 ng/mL.
Hela cells with and without IFNγ were dispensed to the respective wells of 384-well assay plates containing the compounds. The plates were incubated for about 48 hours at a 37° C., 5% CO2 incubator. Afterwards, 12 μL of 0.5 M methyl isonipecotate in dimethyl sulfoxide were added into each well and the plates were sealed and incubated at 37° C. without CO2 overnight. The plates were centrifuged for 1 min at 200×g. The resulting fluorescence was measured in a Spectramax plate reader (Molecular Devices) with a 400 nm excitation filter and a 510 nm emission filter.
The fluorescence intensity of each well was corrected for the background observed in wells with non-IFNγ-treated cells and was expressed as a fraction of the intensity observed in wells of IFNγ-treated cells and DMSO only. Potencies were calculated by linear least squares fit to the four parameter logistic IC50 equation.
Compounds disclosed herein generally have IC50 of about 1 nM to about 1,000 nM, or more specifically, about 2 nM to about 800 nM, or more specifically, about 5 nM to about 600 nM, or still more specifically, about 10 nM to about 500 nM. Such a result is indicative of the intrinsic activity of the compounds in use as an inhibitor of an IDO enzyme.

[2] = biological target: T1, IDO1; assay: IDO1 Human Whole Blood Assay; type: cell-based; details: LPS and IFNγ 100 ng/mL, 18 h, kynurenine by LC/MS/MS
Description: IDO1 Human Whole Blood Assay
Compounds to be tested were serially diluted in ten 3-fold steps in DMSO starting from 10 mM. 3 μL of compound dilutions or DMSO alone were then dispensed from the dilution plate into a polypropylene 96-well assay plate containing 97 μL of RPMI medium using an Echo 555 acoustic liquid handler (Labcyte). LPS and IFNγ was prepared in RPMI medium to a 10× of final conc. (1000 ng/mL), final concentration is 100 ng/mL.
Two hundred forty μL of blood was transferred to each of the wells of a v-bottom 96 well plate. Thirty μL of compound was transferred from intermediate dilution plate, and incubated for 15 min. Thirty μL from stimulants was then transferred to blood and mixed thoroughly. Plate was covered with breathable membrane and incubated at 37° C. for overnight (18 h).
On day 2 isotope labeled standard of kynurenine and tryptophan was made in water at 10× concentration and 30 μL was added to the blood at 3 μM final concentration. The assay plates were centrifuged at 300×G for 10 min with no brake to separate plasma from red blood cells. Sixty μL of plasma samples was removed without disturbing red blood cells. Plasma was diluted with RPMI in 1:1 ratio and proteins were precipitated out with two volume of acetonitrile. The plates were centrifuged at 4000×G for 60 min. Twenty μL of supernatant was carefully transferred to a 384 well plate containing 40 μL of 0.1% formic acid in water and analyzed by LC/MS/MS.
LC/MS/MS analyses were performed using Thermo Fisher's LX4-TSQ Quantum Ultra system. This system consists of four Agilent binary high-performance liquid chromatography (HPLC) pumps and a TSQ Quantum Ultra triple quadruple MS/MS instrument. For each sample, 5 μL were injected onto an Atlantis T3 column (2.1 mm×150 mm, 3 μm particle size) from Waters. The mobile phase gradient pumped at 0.8 mL/min was used to elute the analytes from the column at 25° C. […] Compounds were titrated and IC50's were calculated by 4 parameter sigmoidal curve fitting formula. […]

T1 sequence (P14902 whole entry): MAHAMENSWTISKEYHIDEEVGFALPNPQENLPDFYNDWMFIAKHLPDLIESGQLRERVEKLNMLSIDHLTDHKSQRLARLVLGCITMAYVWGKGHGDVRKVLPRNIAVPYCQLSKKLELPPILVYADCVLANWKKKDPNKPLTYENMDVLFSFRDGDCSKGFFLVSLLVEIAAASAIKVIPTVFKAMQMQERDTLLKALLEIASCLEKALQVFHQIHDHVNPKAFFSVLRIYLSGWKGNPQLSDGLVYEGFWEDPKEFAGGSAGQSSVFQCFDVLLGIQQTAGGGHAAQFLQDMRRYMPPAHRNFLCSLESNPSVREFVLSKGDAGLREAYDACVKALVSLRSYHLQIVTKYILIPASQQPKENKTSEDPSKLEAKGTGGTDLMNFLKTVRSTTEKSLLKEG

Row | Structure (SMILES) | IC50 [1] | IC50 [2]
1 | CC(C(=O)Nc1ccc(F)cc1)C12CC(Nc3ncnc4ccccc34)(C1)C2 (single isomer, unassigned) [Example 5, N-(4-fluorophenyl)-2-(3-(quinazolin-4-ylamino)bicyclo[1.1.1]pentan-1-yl)propanamide] | 5.38 nM | 543 nM
2 | CC(C(=O)Nc1ccc(F)cc1)C12CC(Nc3ncnc4ccc(F)cc34)(C1)C2 (single isomer, unassigned) [Example 11, N-(4-fluorophenyl)-2-(3-((6-fluoroquinazolin-4-yl)amino)bicyclo[1.1.1]pentan-1-yl)propanamide] | 3.23 nM | 378 nM
3 | C[C@H](C(=O)Nc1ccc(F)cc1)C12CC(N(C)Cc3cccc(Cl)c3)(C1)C2 [Example 29, (S)-2-(3-((3-chlorobenzyl)(methyl)amino)bicyclo[1.1.1]pentan-1-yl)-N-(4-fluorophenyl)propanamide, TFA] | 5.6 nM | 625 nM
4 | C[C@H](C(=O)Nc1ccc(F)cc1)C12CC(N(C)Cc3ccc(Cl)c(Cl)c3)(C1)C2 [Example 33, (S)-2-(3-((3,4-dichlorobenzyl)(methyl)amino)bicyclo[1.1.1]pentan-1-yl)-N-(4-fluorophenyl)propanamide, TFA] | 8.86 nM | 
